Assay results taken from PubChem BioAssay (NCI).
“And” between values parts separate entries of the source, which are not always exact repeats. Equal entries are not always repeated.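 48-hour exposure; five concentrations; linearly interpolated endpoints. GI50 is the concentration that inhibits growth by half. TGI marks complete inhibition of growth.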

What was measured:
Assay in all cases: inhibition of tumour cell growth, NCI panel, 48 h
[1] = test system: UO-31 renal
[2] = test system: SF-295 CNS
[3] = test system: U251 CNS
[4] = test system: SK-MEL-28 melanoma
[5] = test system: BT-549 breast
[6] = test system: COLO 205 colon
[7] = test system: A549 NSCLC
[8] = test system: SK-MEL-5 melanoma
[9] = test system: TK-10 renal
[10] = test system: KM12 colon

SMILES	TGI [1]	TGI [2]	TGI [3]	TGI [4] [µM]	TGI [5]	TGI [6] [µM]	TGI [7]	TGI [8]	TGI [9] [µM]	TGI [10]	GI50 [2]	GI50 [3]	GI50 [5]	GI50 [7]	GI50 [8]
NS(=O)(=O)c1nnc(NC(=O)Nc2ccc(Cl)c(Cl)c2)s1	85.3 µM	> 100 µM	> 100 µM	39.3	52.2 µM	28.2	> 100 µM	30.8 µM	43.9	92 µM	–	–	–	–	–
CC(C)=CCC[C@@H](C)c1c(O)c(O)c(C)c2nccnc12	45.9 µM	> 71.2 µM	> 100 µM	> 100	> 100 µM	> 80.7	> 100 µM	18.9 µM	> 100	> 72 µM	–	–	–	–	–
O=C(/C=C/c1ccc2c(c1)OCO2)Cc1nc2ncccc2[nH]c1=O	> 100 µM	> 100 µM	> 100 µM	> 100	> 100 µM	> 100	> 100 µM	> 100 µM	> 100	> 100 µM	–	–	–	–	–
Cc1ccc(N(Cc2ccccc2)Cc2ccccc2)cc1	> 100 µM	> 100 µM	> 100 µM	> 100	> 100 µM	> 100	> 100 µM	> 100 µM	> 100	> 100 µM	–	–	–	–	–
Nc1c(-c2ccc(Cl)c(Cl)c2)c2ccc([N+](=O)[O-])cc2c(=O)n1-c1nc2ccccc2s1	18.1 µM	20.4 µM	> 34.1 µM	> 100	21.7 µM	2.89	> 43.8 µM	1.18 µM	30.5	> 100 µM	–	–	–	–	–
C=CC1(CC/C(=C\[N+](=O)[O-])c2ccc(OC)c(OC)c2)OCC(C)(C)CO1	31.6 µM	53.1 µM	> 100 µM	50.3	31.1 µM	43.4	> 100 µM	87.2 µM	34.6	47.2 µM	–	–	–	–	–
Cc1cc(C)nc(NS(=O)(=O)c2ccc(NC(=O)c3ccc4nc5ccccc5c(Nc5ccc(S(N)(=O)=O)cc5)c4c3)cc2)n1	> 100 µM	> 100 µM	> 100 µM	> 100	> 100 µM	> 100	> 100 µM	> 100 µM	> 100	> 100 µM	–	–	–	–	–
CCOP(=O)(OCC)C(F)(F)c1ccc(CC(NC(=O)OC(C)(C)C)C(=O)O)cc1 (stereo not given)	> 10 µM	> 10 µM	> 10 µM	> 10	> 10 µM	> 10	> 10 µM	> 10 µM	> 10	> 10 µM	–	–	–	–	–
N#CC(Cc1ccccc1)N(CCC1=CCCCC1)C(c1ccccc1)c1ccccc1 (stereo not given)	> 100 µM	> 100 µM	> 100 µM	> 100	> 100 µM	> 100	> 100 µM	> 100 µM	> 100	> 100 µM	–	–	–	–	–
COc1cccc(Nc2nc(-c3cccs3)nc3cc(OC)c(OC)cc23)c1	> 100 µM	53.1 µM	61.8 µM	> 100	86 µM	62.3	> 100 µM	44.5 µM	> 100	87.1 µM	–	–	–	–	–
COc1ncc(/C=C2\OC(=O)c3ccccc32)c(OC)n1	> 100 µM	> 100 µM	> 100 µM	> 100	10.9 µM	> 100	> 100 µM	58.7 µM	> 100	> 100 µM	–	–	–	–	–
CC(=O)Nc1nc(NC(C)=O)c2[nH]c(CO)nc2n1	> 100 µM	> 100 µM	> 100 µM	> 100	> 100 µM	> 100	> 100 µM	> 100 µM	> 100	> 100 µM	–	–	–	–	–
Cc1ccc(-c2cc(-c3ccco3)c(C#N)c(=S)n2C2OC(CO)C(O)C(O)C2O)cc1 (stereo not given)	52 µM and > 100 µM	31.3 µM and > 100 µM	35.6 µM and > 100 µM	> 100	78.5 µM and > 100 µM	> 100	65.8 µM and > 100 µM	18.2 µM and 30.8 µM	> 100	76.9 µM and > 100 µM	11.8 µM and 28.6 µM	16.6 µM and 36.5 µM	18.2 µM and 57.3 µM	21.5 µM and 50.7 µM	5.75 µM and 14.9 µM
CC1CN(C)c2ccccc2N=C1NN (stereo not given)	> 100 µM	> 100 µM	> 100 µM	> 100	> 100 µM	> 100	> 100 µM	> 100 µM	> 100	> 100 µM	–	–	–	–	–
COC(=O)C1=C(C(=O)OC)SC(=C2SCSC3=C2SC(C(=O)OC)=C(C(=O)OC)C32SC3=C(CCCC3)S2)S1	> 100 µM	> 100 µM	> 100 µM	> 100	> 100 µM	> 100	> 100 µM	> 100 µM	> 100	> 100 µM	–	–	–	–	–
Cc1oc2c(cc(O)c3cc(O)ccc32)c2cccc1-2	> 100 µM	> 100 µM	> 100 µM	> 100	44 µM	> 100	> 100 µM	> 100 µM	> 100	> 100 µM	–	–	–	–	–
Nc1nc(-c2ccccc2)nc2oc(-c3cccs3)nc12	> 100 µM	> 100 µM	> 100 µM	> 100	> 100 µM	> 100	> 100 µM	> 100 µM	> 100	> 100 µM	–	–	–	–	–
